{
  "source": "paper PMC12424289",
  "about": "“Programmable Nanostructure Assembly of a Paclitaxel Derivative Enables Tunable Anticancer Therapy via Hydrogen Bond Engineering” (ACS Nano, 2025)",
  "key": {"[1]": {"assay": "Appearance on dissolving/dispersing in water or excipient solution", "assay_type": "physicochemical", "settings": "5.0 mg·mL^–1 drug; with 260.0 mg·mL^–1 PEG400 or 20.0 mg·mL^–1 HA where named", "procedure": "PTP self-assemblies were prepared by adding 5.0 mg of PTP to 1.0 mL of a water, followed by vortexing for 1 min. For PTP@PEG coassemblies, 260.0 mg of PEG400 was mixed with 1.0 mL of the chosen water-based solution. This PEG400 solution was then added to 5.0 mg of PTP powder, and the resulting mixture was vortexed for 1 min. PTP@HA coassemblies were prepared by first dispersing 20.0 mg of HA in 1.0 mL of the selected water-based solution. Following this step, the resulting HA solution was added to 5.0 mg of PTP powder. The final mixture was vortexed for 1 min. To prepare the PTX@PEG control system, 1.3 g of PEG400 was mixed with 5.0 mL of water. Then, 25.0 mg of PTX was added to the solution, and the mixture was vortexed for 1 min. Similarly, the PTX@HA control system was prepared by dispersing 100.0 mg of HA in 5.0 mL of water. Subsequently, 25.0 mg of PTX was added, and the mixture was vortexed for 1 min."}, "[2]": {"assay": "Degradation of PTP assemblies in aqueous solution (HPLC)", "assay_type": "physicochemical", "settings": "37 °C", "procedure": "PTP, PTP@PEG, and PTP@HA (200 μL, 0.1 mg·mL^–1) solutions were sealed in ampules and incubated at 37 °C with agitation at 100 rpm. Samples were collected in triplicate at scheduled intervals, treated with acetonitrile, vortexed for 1 min, and analyzed using HPLC. Degradation rate constants (k) were calculated by plotting the natural logarithm of the concentration ratio (ln c/c0) versus time, with the slopes of the linear regression plots representing the rate constants."}, "[3]": {"test_system": "Balb/c mice", "assay": "Maximum tolerated dose / survival in mice", "assay_type": "in vivo, mouse", "settings": "iv, PTP 100 mg·kg^–1, 14 days"}, "[4]": {"test_system": "tubulin", "assay": "Isothermal titration calorimetry with tubulin", "assay_type": "binding", "settings": "tubulin 180 μM titrated into 25 μM compound", "procedure": "ITC experiments were performed using a Nano-ITC (TA Instruments, USA) with all samples degassed for 8 min prior to measurement. Experiments were conducted under stirring at 350 rpm. To account for background signals, control experiments were conducted and subtracted from the test data. The resulting heat values were analyzed using an independent model to extract thermodynamic parameters. For tubulin binding studies, solutions were prepared in PEM buffer containing 5% (v/v) DMSO. In each experiment, 400 μL of the […] was loaded into the sample cell, and 400 μL of PEM buffer with 5% (v/v) DMSO was placed in the reference cell. Tubulin solution (180 μM) was titrated into the sample cell in 25 injections of 2 μL each at 4 °C. A control titration of tubulin into PEM buffer (5% DMSO) was performed to account for dilution effects. To assess interactions between PTP and excipients, PTP dispersions (25 μM) were loaded into the sample cell, and water was used in the reference cell. PEG400 solution (6.0 mg·mL^–1) was titrated into a 2.0 mg·mL^–1 PTP dispersion, and HA (2.7 mg·mL^–1) into a 1.0 mg·mL^–1 PTP dispersion. Both titrations were performed at 25 °C with 25 injections of 2 μL each. Control experiments were performed by titrating PEG400 or HA into water to correct for nonspecific heat effects."}, "[5]": {"test_system": "human ovarian SKOV3 cells", "assay": "CCK8 antiproliferation assay, SKOV3", "assay_type": "cell-based", "settings": "SK-OV-3, SKOV3, 48 h treatment", "procedure": "The mouse breast cancer cell line 4T1 and the human ovarian cancer cell line SKOV3 were cultured in RPMI 1640 medium supplemented with 10% fetal bovine serum, 100 units·mL^–1 penicillin, and 100 μg·mL^–1 streptomycin. The human lung cancer cell line A549 and the luciferase-expressing human colorectal carcinoma cell line HCT116-Luc were cultured in high-glucose DMEM medium supplemented with 10% fetal bovine serum, 100 units·mL^–1 penicillin, and 100 μg·mL^–1 streptomycin. All cell lines were maintained at 37 °C in a Steri-Cycle 371 incubator (Thermo Scientific, USA) with a humidified atmosphere of 5% CO2. Only cells between passages 5 and 15 were used for cell-based experiments.\nThe antiproliferative activity of PTP was evaluated using the Cell Counting Kit-8 (CCK8) assay. PTX solution served as a positive control. Cell suspensions were prepared at a density of 3 × 10^4 cells·mL^–1 and seeded in 96-well plates at a volume of 100 μL per well. The plates were incubated for 24 h to allow cell attachment and growth. Subsequently, the culture media were replaced with fresh media containing varying concentrations of PTX or PTP solutions (100 μL per well), and the cells were incubated for an additional 48 h (n = 3). Control wells received fresh culture media alone (n = 3). […] Finally, the absorbance was measured at 450 nm using a microplate reader (Synergy H1, BioTek, USA). […]"}, "[6]": {"test_system": "subcutaneous 4T1 tumors", "assay": "Antitumor efficacy and safety in subcutaneous 4T1 tumor model", "assay_type": "in vivo", "settings": "4T1 model, iv 10.0 mg·kg^–1 PTX equivalent, five doses", "procedure": "For pharmacodynamic evaluation, female Balb/c mice (18–22 g, n = 6 per group) bearing subcutaneous 4T1 tumors (approximately 50 mm^3) received intravenous injections every other day for five doses at 10.0 mg·kg^–1 (PTX equivalent). Tumor volume and body weight were monitored daily until day 14, when tumors were excised and photographed. At study termination (day 14), major organs (heart, liver, spleen, lungs, and kidneys) were collected from these mice. The organs were fixed in 4% paraformaldehyde, dehydrated with ethanol, and cleared with xylene. Afterward, the tissues were embedded in paraffin wax and sectioned after dipping wax operation at 60 °C. The sections were then stained with hematoxylin and eosin for histological examination."}},
  "data": [
    {"smiles": "CC(=O)O[C@H]1C(=O)[C@@]2(C)[C@H]([C@H](OC(=O)c3ccccc3)[C@]3(O)C[C@H](OC(=O)[C@H](OC(=O)CCP(=O)(O)O)[C@@H](NC(=O)c4ccccc4)c4ccccc4)C(C)=C1C3(C)C)[C@]1(OC(C)=O)CO[C@@H]1C[C@@H]2O", "note": "[PTP, PTX-2’–OOC-P]", "values": [
      {"measurement": "appearance of the system", "setting": "[1]", "result": "transparent solution"},
      {"measurement": "degradation rate constant (k)", "setting": "[2]; 0.1 mg·mL^–1 in 5% glucose (5% G)", "result": "2.3 × 10^–2 day^–1"},
      {"measurement": "degradation rate constant (k)", "setting": "[2]; 0.1 mg·mL^–1 in phosphate buffer saline (PBS)", "result": 1.3, "unit": "day^–1"},
      {"measurement": "degradation rate constant (k)", "setting": "[2]; 0.1 mg·mL^–1 in saline", "result": "3.2 × 10^–2 day^–1"},
      {"measurement": "degradation rate constant (k)", "setting": "[2]; 0.1 mg·mL^–1 in water", "result": "8.0 × 10^–2 day^–1"},
      {"measurement": "fatalities", "setting": "[3]", "result": "No fatalities"},
      {"measurement": "molar ratio of tubulin to compound", "setting": "[4]; ITC", "result": 1.6},
      {"measurement": "Gibbs free energy change (ΔG)", "setting": "[4]; 5% DMSO, 4 °C", "result": "−26.8", "unit": "kJ·mol^–1"},
      {"measurement": "IC50", "setting": "[5]", "result": 31.2, "unit": "nM"},
      {"measurement": "safety: body weight and renal histology", "setting": "[6]", "result": "renal inflammation"}
    ]}
  ]
}
